{
  "source": "patent US20190322676A1",
  "about": "“CERAMIDE GALACTOSYLTRANSFERASE INHIBITORS FOR THE TREATMENT OF DISEASE” (BioMarin Pharmaceutical Inc., priority 2016, published 2019)",
  "note": "Counter-ions that a name gives are not always drawn.",
  "data": [
    {"target": "T1, human CGT (ceramide galactosyltransferase), CHO/CGT lysate (Homo sapiens, UniProt Q16880)", "T1 construct": "Full-length human CGT cDNA was cloned into the BamH1/Xho1 site of pcDNA3.1 (+); expressed in transfected cells; host or cells: Chinese hamster ovary (CHO) cells; lysate prepared with M-PER", "T1 sequence (Q16880 21-541)": "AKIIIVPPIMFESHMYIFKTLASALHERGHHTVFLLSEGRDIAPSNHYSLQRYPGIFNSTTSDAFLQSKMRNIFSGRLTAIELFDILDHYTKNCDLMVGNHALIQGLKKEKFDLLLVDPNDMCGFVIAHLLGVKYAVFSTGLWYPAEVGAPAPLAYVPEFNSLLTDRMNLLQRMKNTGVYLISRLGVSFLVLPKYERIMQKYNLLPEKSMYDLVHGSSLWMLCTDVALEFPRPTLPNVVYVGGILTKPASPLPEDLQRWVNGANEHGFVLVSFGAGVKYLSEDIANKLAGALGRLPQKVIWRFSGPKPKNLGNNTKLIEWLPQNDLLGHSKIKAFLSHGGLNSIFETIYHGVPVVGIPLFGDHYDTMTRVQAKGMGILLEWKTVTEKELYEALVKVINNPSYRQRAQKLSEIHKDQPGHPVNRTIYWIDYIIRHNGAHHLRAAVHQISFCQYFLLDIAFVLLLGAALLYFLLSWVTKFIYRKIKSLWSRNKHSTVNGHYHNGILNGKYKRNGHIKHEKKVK", "experiment": "CGT enzyme assay, RapidFire/MS/MS readout (Table 1 ranges with one asterisk *)", "assay_type": "biochemical", "details": "RapidFire method (range with one asterisk *)", "procedure,_shortened": "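IC50s come from variable-slope dose-response fits of internal-standard-normalized C6-NBD-dihydro-galactosylceramide, measured by RapidFire/MS/MS (ESI negative). Reactions: 1 h, 37 °C, human CGT-expressing CHO lysate (4 μg), 0.001–50 μM compound, 10 μM NBD-dihydro-ceramide, 17.5 μM UDP-galactose, 0.5% DMSO, pH 7.2; 0.01% Tween 80 added for ** values.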", "units": {"IC50": "µM"}, "values": [
      {"smiles": "CCCCOc1ccc(C(F)(F)[C@@H](C(=O)N2C3CCC2CC(N)C3)N(C)S(=O)(=O)c2ccc3cc(OC4CCCC4)ccc3c2)cc1", "note": "(stereo partly drawn) [Compound 51-1, N-((2R)-3-(3-amino-8-azabicyclo[3.2.1]octan-8-yl)-1-(4-butoxyphenyl)-1,1-difluoro-3-oxopropan-2-yl)-6-(cyclopentyloxy)-N-methylnaphthalene-2-sulfonamide]", "IC50": "1 to 10"},
      {"smiles": "CCCCOc1ccc(C(F)(F)[C@H](C(=O)N2C3CCC2CC(N)C3)N(C)S(=O)(=O)c2ccc3cc(OC4CCCC4)ccc3c2)cc1", "note": "(stereo partly drawn) [Compound 51-2, N-((2S)-3-(3-amino-8-azabicyclo[3.2.1]octan-8-yl)-1-(4-butoxyphenyl)-1,1-difluoro-3-oxopropan-2-yl)-6-(cyclopentyloxy)-N-methylnaphthalene-2-sulfonamide]", "IC50": "1 to 10"},
      {"smiles": "CN([C@H](C(=O)N1C2CCC1CC(N)C2)C(F)(F)c1ccc(Cl)cc1)S(=O)(=O)c1ccc2cc(OC3CCCC3)ccc2c1", "note": "(stereo partly drawn) [Compound 52-1, N-((2R)-3-(3-amino-8-azabicyclo[3.2.1]octan-8-yl)-1-(4-chlorophenyl)-1,1-difluoro-3-oxopropan-2-yl)-6-(cyclopentyloxy)-N-methylnaphthalene-2-sulfonamide]", "IC50": "< 1"},
      {"smiles": "CN([C@@H](C(=O)N1C2CCC1CC(N)C2)C(F)(F)c1ccc(Cl)cc1)S(=O)(=O)c1ccc2cc(OC3CCCC3)ccc2c1", "note": "(stereo partly drawn) [Compound 52-2, N-((2S)-3-(3-amino-8-azabicyclo[3.2.1]octan-8-yl)-1-(4-chlorophenyl)-1,1-difluoro-3-oxopropan-2-yl)-6-(cyclopentyloxy)-N-methylnaphthalene-2-sulfonamide]", "IC50": "30 to 100"},
      {"smiles": "CCCCOc1ccc(C(F)(F)[C@@H](C(=O)N2CCC(N)CC2)N(C)S(=O)(=O)c2ccc3cc(OC4CCCC4)ccc3c2)cc1", "note": "[Compound 53-1, (R)—N-(3-(4-aminopiperidin-1-yl)-1-(4-butoxyphenyl)-1,1-difluoro-3-oxopropan-2-yl)-6-(cyclopentyloxy)-N-methylnaphthalene-2-sulfonamide]", "IC50": "1 to 10"},
      {"smiles": "CCCCOc1ccc(C(F)(F)[C@H](C(=O)N2CCC(N)CC2)N(C)S(=O)(=O)c2ccc3cc(OC4CCCC4)ccc3c2)cc1", "note": "[Compound 53-2, (S)—N-(3-(4-aminopiperidin-1-yl)-1-(4-butoxyphenyl)-1,1-difluoro-3-oxopropan-2-yl)-6-(cyclopentyloxy)-N-methylnaphthalene-2-sulfonamide]", "IC50": "10 to 30"},
      {"smiles": "NC1CC2CCC(C1)N2C(=O)[C@@H](NS(=O)(=O)c1ccc2cc(OC3CCCC3)ccc2c1)C(F)(F)c1ccc(C(F)(F)F)cc1", "note": "(stereo partly drawn) [Compound 54-1, N-((2R)-3-(3-amino-8-azabicyclo[3.2.1]octan-8-yl)-1,1-difluoro-3-oxo-1-(4-(trifluoromethyl)phenyl)propan-2-yl)-6-(cyclopentyloxy)naphthalene-2-sulfonamide]", "IC50": "< 1"},
      {"smiles": "NC1CC2CCC(C1)N2C(=O)[C@H](NS(=O)(=O)c1ccc2cc(OC3CCCC3)ccc2c1)C(F)(F)c1ccc(C(F)(F)F)cc1", "note": "(stereo partly drawn) [Compound 54-2, N-((2S)-3-(3-amino-8-azabicyclo[3.2.1]octan-8-yl)-1,1-difluoro-3-oxo-1-(4-(trifluoromethyl)phenyl)propan-2-yl)-6-(cyclopentyloxy) naphthalene-2-sulfonamide]", "IC50": "10 to 30"},
      {"smiles": "NC1CC2CCC(C1)N2C(=O)[C@@H](NS(=O)(=O)c1ccc2cc(OC3CCCC3)ccc2c1)C(F)(F)c1ccc(-c2ccc(C(F)(F)F)cc2)cc1", "note": "(stereo partly drawn) [Compound 55-1, N-((2R)-3-(3-amino-8-azabicyclo[3.2.1]octan-8-yl)-1,1-difluoro-3-oxo-1-(4′-(trifluoromethyl)-[1,1′-biphenyl]-4-yl)propan-2-yl)-6-(cyclopentyloxy) naphthalene-2-sulfonamide trifluoroacetate]", "IC50": "< 1"},
      {"smiles": "NC1CC2CCC(C1)N2C(=O)[C@H](NS(=O)(=O)c1ccc2cc(OC3CCCC3)ccc2c1)C(F)(F)c1ccc(-c2ccc(C(F)(F)F)cc2)cc1", "note": "(stereo partly drawn) [Compound 55-2, N-((2S)-3-(3-amino-8-azabicyclo[3.2.1]octan-8-yl)-1,1-difluoro-3-oxo-1-(4′-(trifluoromethyl)-[1,1′-biphenyl]-4-yl)propan-2-yl)-6-(cyclopentyloxy)naphthalene-2-sulfonamide trifluoroacetate]", "IC50": "1 to 10"},
      {"smiles": "NC1CC2CCC(C1)N2C(=O)[C@@H](NS(=O)(=O)c1ccc2cc(OC3CCCC3)ccc2c1)C(F)(F)c1ccc(-c2ccc(F)cc2)cc1", "note": "(stereo partly drawn) [Compound 56-1, N-((2R)-3-(3-amino-8-azabicyclo[3.2.1]octan-8-yl)-1,1-difluoro-1-(4′-fluoro-[1,1′-biphenyl]-4-yl)-3-oxopropan-2-yl)-6-(cyclopentyloxy)naphthalene-2-sulfonamide trifluoroacetate]", "IC50": "< 1"},
      {"smiles": "NC1CC2CCC(C1)N2C(=O)[C@H](NS(=O)(=O)c1ccc2cc(OC3CCCC3)ccc2c1)C(F)(F)c1ccc(-c2ccc(F)cc2)cc1", "note": "(stereo partly drawn) [Compound 56-2, N-((2S)-3-(3-amino-8-azabicyclo[3.2.1]octan-8-yl)-1,1-difluoro-1-(4′-fluoro-[1,1′-biphenyl]-4-yl)-3-oxopropan-2-yl)-6-(cyclopentyloxy)naphthalene-2-sulfonamide trifluoroacetate]", "IC50": "1 to 10"},
      {"smiles": "NCC1CCN(C(=O)[C@@H](NS(=O)(=O)c2ccc3cc(OC4CCCC4)ccc3c2)C(F)(F)c2ccc(Br)cc2)CC1", "note": "[Compound 57-1, (R)—N-(3-(4-(aminomethyl)piperidin-1-yl)-1-(4-bromophenyl)-1,1-difluoro-3-oxopropan-2-yl)-6-(cyclopentyloxy)naphthalene-2-sulfonamide trifluoroacetate]", "IC50": "< 1"},
      {"smiles": "NCC1CCN(C(=O)[C@H](NS(=O)(=O)c2ccc3cc(OC4CCCC4)ccc3c2)C(F)(F)c2ccc(Br)cc2)CC1", "note": "[Compound 57-2, (S)—N-(3-(4-(aminomethyl)piperidin-1-yl)-1-(4-bromophenyl)-1,1-difluoro-3-oxopropan-2-yl)-6-(cyclopentyloxy)naphthalene-2-sulfonamide trifluoroacetate]", "IC50": "10 to 30"},
      {"smiles": "CCCCOc1ccc(C(F)(F)[C@@H](C(=O)N2CCC(N)CC2)N(C)S(=O)(=O)c2ccc(OCC3CCCCC3)cc2)cc1", "note": "[Compound 58-1, (R)—N-(3-(4-aminopiperidin-1-yl)-1-(4-butoxyphenyl)-1,1-difluoro-3-oxopropan-2-yl)-4-(cyclohexylmethoxy)-N-methylbenzenesulfonamide]", "IC50": "1 to 10"},
      {"smiles": "CCCCOc1ccc(C(F)(F)[C@H](C(=O)N2CCC(N)CC2)N(C)S(=O)(=O)c2ccc(OCC3CCCCC3)cc2)cc1", "note": "[Compound 58-2, (S)—N-(3-(4-aminopiperidin-1-yl)-1-(4-butoxyphenyl)-1,1-difluoro-3-oxopropan-2-yl)-4-(cyclohexylmethoxy)-N-methylbenzenesulfonamide]", "IC50": "10 to 30"},
      {"smiles": "NC1CC2CCC(C1)N2C(=O)[C@@H](NS(=O)(=O)c1ccc(OCC2CCCCC2)cc1)C(F)(F)c1ccc(C(F)(F)F)cc1", "note": "(stereo partly drawn) [Compound 59-1, N-((2R)-3-(3-amino-8-azabicyclo[3.2.1]octan-8-yl)-1,1-difluoro-3-oxo-1-(4-(trifluoromethyl)phenyl)propan-2-yl)-4-(cyclohexylmethoxy)benzenesulfonamide]", "IC50": "< 1"},
      {"smiles": "NC1CC2CCC(C1)N2C(=O)[C@H](NS(=O)(=O)c1ccc(OCC2CCCCC2)cc1)C(F)(F)c1ccc(C(F)(F)F)cc1", "note": "(stereo partly drawn) [Compound 59-2, N-((2S)-3-(3-amino-8-azabicyclo[3.2.1]octan-8-yl)-1,1-difluoro-3-oxo-1-(4-(trifluoromethyl)phenyl)propan-2-yl)-4-(cyclohexylmethoxy) benzenesulfonamide]", "IC50": "1 to 10"}
    ]}
  ]
}
